Assay results taken from the NIST ThermoML archive (doi:10.1016/j.fluid.2012.02.007).

Details: Liquid, Vibrating tube method

CCCCCCO [hexan-1-ol]
Details | mass density [kg/m3]
293.15 K, 100 kPa | 818.6
293.15 K, 10000 kPa | 824.8
293.15 K, 20000 kPa | 830.9
293.15 K, 30000 kPa | 836.4
293.15 K, 40000 kPa | 841.6
293.15 K, 50000 kPa | 846.5
293.15 K, 60000 kPa | 851.1
293.15 K, 70000 kPa | 855.5
293.15 K, 80000 kPa | 859.8
293.15 K, 90000 kPa | 863.7
293.15 K, 100000 kPa | 867.9
293.15 K, 110000 kPa | 871.5
293.15 K, 120000 kPa | 875.2
293.15 K, 130000 kPa | 878.7
293.15 K, 140000 kPa | 882.2
303.15 K, 100 kPa | 811.5
303.15 K, 10000 kPa | 818.2
303.15 K, 20000 kPa | 824.1
303.15 K, 30000 kPa | 830
303.15 K, 40000 kPa | 835.1
303.15 K, 50000 kPa | 840.5
303.15 K, 60000 kPa | 845.3
303.15 K, 70000 kPa | 849.8
303.15 K, 80000 kPa | 854.2
303.15 K, 90000 kPa | 858.4
303.15 K, 100000 kPa | 862.4
303.15 K, 110000 kPa | 866.3
303.15 K, 120000 kPa | 870
303.15 K, 130000 kPa | 873.6
303.15 K, 140000 kPa | 877.1
313.15 K, 100 kPa | 804.2
313.15 K, 10000 kPa | 811.1
313.15 K, 20000 kPa | 817.4
313.15 K, 30000 kPa | 823.5
313.15 K, 40000 kPa | 829
313.15 K, 50000 kPa | 834.4
313.15 K, 60000 kPa | 839.4
313.15 K, 70000 kPa | 844.3
313.15 K, 80000 kPa | 848.7
313.15 K, 90000 kPa | 853.1
313.15 K, 100000 kPa | 857.1
313.15 K, 110000 kPa | 861.2
313.15 K, 120000 kPa | 865.1
313.15 K, 130000 kPa | 868.7
313.15 K, 140000 kPa | 872.5
323.15 K, 100 kPa | 797.3
323.15 K, 10000 kPa | 804.5
323.15 K, 20000 kPa | 811.2
323.15 K, 30000 kPa | 817.4
323.15 K, 40000 kPa | 823.3
323.15 K, 50000 kPa | 828.7
323.15 K, 60000 kPa | 833.8
323.15 K, 70000 kPa | 838.5
323.15 K, 80000 kPa | 843.1
323.15 K, 90000 kPa | 847.6
323.15 K, 100000 kPa | 851.8
323.15 K, 110000 kPa | 856
323.15 K, 120000 kPa | 860
323.15 K, 130000 kPa | 863.7
323.15 K, 140000 kPa | 867.3
333.15 K, 100 kPa | 789.7
333.15 K, 10000 kPa | 797.2
333.15 K, 20000 kPa | 804.3
333.15 K, 30000 kPa | 810.8
333.15 K, 40000 kPa | 817
333.15 K, 50000 kPa | 822.7
333.15 K, 60000 kPa | 828
333.15 K, 70000 kPa | 832.8
333.15 K, 80000 kPa | 837.6
333.15 K, 90000 kPa | 842.5
333.15 K, 100000 kPa | 846.8
333.15 K, 110000 kPa | 850.8
333.15 K, 120000 kPa | 854.4
333.15 K, 130000 kPa | 858.5
333.15 K, 140000 kPa | 862.2
343.15 K, 100 kPa | 781.9
343.15 K, 10000 kPa | 790.2
343.15 K, 20000 kPa | 797.6
343.15 K, 30000 kPa | 804.4
343.15 K, 40000 kPa | 810.6
343.15 K, 50000 kPa | 816.4
343.15 K, 60000 kPa | 822.1
343.15 K, 70000 kPa | 827.3
343.15 K, 80000 kPa | 832.1
343.15 K, 90000 kPa | 836.9
343.15 K, 100000 kPa | 841.4
343.15 K, 110000 kPa | 845.7
343.15 K, 120000 kPa | 849.7
343.15 K, 130000 kPa | 853.6
343.15 K, 140000 kPa | 857.5
353.15 K, 100 kPa | 773.8
353.15 K, 10000 kPa | 782.3
353.15 K, 20000 kPa | 790.1
353.15 K, 30000 kPa | 797.3
353.15 K, 40000 kPa | 803.8
353.15 K, 50000 kPa | 810
353.15 K, 60000 kPa | 815.6
353.15 K, 70000 kPa | 821
353.15 K, 80000 kPa | 826.2
353.15 K, 90000 kPa | 831.1
353.15 K, 100000 kPa | 835.6
353.15 K, 110000 kPa | 840
353.15 K, 120000 kPa | 844.3
353.15 K, 130000 kPa | 848.4
353.15 K, 140000 kPa | 852.3
363.15 K, 100 kPa | 765.5
363.15 K, 10000 kPa | 774.9
363.15 K, 20000 kPa | 783.1
363.15 K, 30000 kPa | 790.6
363.15 K, 40000 kPa | 797.5
363.15 K, 50000 kPa | 803.8
363.15 K, 60000 kPa | 809.7
363.15 K, 70000 kPa | 815.4
363.15 K, 80000 kPa | 820.6
363.15 K, 90000 kPa | 825.6
363.15 K, 100000 kPa | 830.3
363.15 K, 110000 kPa | 834.8
363.15 K, 120000 kPa | 839.2
363.15 K, 130000 kPa | 843.3
363.15 K, 140000 kPa | 847.2
373.15 K, 100 kPa | 756.9
373.15 K, 10000 kPa | 766.6
373.15 K, 20000 kPa | 775.4
373.15 K, 30000 kPa | 783.4
373.15 K, 40000 kPa | 790.4
373.15 K, 50000 kPa | 796.9
373.15 K, 60000 kPa | 803.1
373.15 K, 70000 kPa | 808.9
373.15 K, 80000 kPa | 814.2
373.15 K, 90000 kPa | 819.5
373.15 K, 100000 kPa | 824.4
373.15 K, 110000 kPa | 829.2
373.15 K, 120000 kPa | 833.3
373.15 K, 130000 kPa | 837.7
373.15 K, 140000 kPa | 841.7
383.15 K, 100 kPa | 748.2
383.15 K, 10000 kPa | 759.1
383.15 K, 20000 kPa | 767.8
383.15 K, 30000 kPa | 776.5
383.15 K, 40000 kPa | 783.5
383.15 K, 50000 kPa | 790.4
383.15 K, 60000 kPa | 796.8
383.15 K, 70000 kPa | 802.6
383.15 K, 80000 kPa | 808.3
383.15 K, 90000 kPa | 813.7
383.15 K, 100000 kPa | 818.7
383.15 K, 110000 kPa | 823.4
383.15 K, 120000 kPa | 828
383.15 K, 130000 kPa | 832.3
383.15 K, 140000 kPa | 836.5
393.15 K, 100 kPa | 739.4
393.15 K, 10000 kPa | 750.8
393.15 K, 20000 kPa | 760.5
393.15 K, 30000 kPa | 768.8
393.15 K, 40000 kPa | 777
393.15 K, 50000 kPa | 783.7
393.15 K, 60000 kPa | 790.3
393.15 K, 70000 kPa | 796.5
393.15 K, 80000 kPa | 802.5
393.15 K, 90000 kPa | 807.8
393.15 K, 100000 kPa | 813
393.15 K, 110000 kPa | 818.1
393.15 K, 120000 kPa | 822.6
393.15 K, 130000 kPa | 827.2
393.15 K, 140000 kPa | 831.5
403.15 K, 100 kPa | 730.2
403.15 K, 10000 kPa | 741.8
403.15 K, 20000 kPa | 751.9
403.15 K, 30000 kPa | 761.1
403.15 K, 40000 kPa | 769.3
403.15 K, 50000 kPa | 776.9
403.15 K, 60000 kPa | 783.7
403.15 K, 70000 kPa | 790.1
403.15 K, 80000 kPa | 796.2
403.15 K, 90000 kPa | 801.8
403.15 K, 100000 kPa | 807.2
403.15 K, 110000 kPa | 812.3
403.15 K, 120000 kPa | 817.1
403.15 K, 130000 kPa | 821.8
403.15 K, 140000 kPa | 826.5
